These are literature values, as cited in patent US9540355B2, “Irciniastatin analogues” (priority 2013, dated 2017).

One data set has as its system ACHN. The note with it: kidney; cited from earlier work.
Another data set deals with SW620. The conditions noted are these: SW620, colon; cited from earlier work.
For a further data set, the system named is MB231. The conditions noted are these: MB231, breast; cited from earlier work.
The next data set relates to H226. The conditions noted are these: H226, lung; cited from earlier work.
The subject of another data set is HOP62. The conditions noted are these: HOP62, lung; cited from earlier work.
The next data set relates to DU145. The conditions noted are these: DU145, prostate; cited from earlier work.
In a further data set the test system is MKN45. The conditions noted are these: MKN45, gastric; cited from earlier work.
A further data set has as its system NHDF. The note with it: normal; cited from earlier work.
In another data set the test system is PC3. The note with it: PC3, prostate; cited from earlier work.

What is called IC50 is the concentration that inhibits the measured activity by half. With C11-Deoxyirciniastatin [compound 29], the IC50 with ACHN is 265 ± 8 pM; with SW620 it was 160 ± 15 pM; in the data set on MB231, 142 ± 7 pM; in the data set on H226 it was 34 ± 4 pM; with HOP62, 55 ± 2 pM; with DU145 it was 149 ± 5 pM. Besides, the IC50 is 76 ± 4 pM in the data set on MKN45, 66 ± 4 pM with NHDF and 73 ± 6 pM in the data set on PC3.
